Results: ChEMBL document CHEMBL2021850, “Steroidal C-21 heteroaryl thioethers. Part 3: pregn-4-eno-[3,2-c]pyrazole fused A ring modified steroids as selective glucocorticoid receptor modulators (dissociated steroids)” (Bioorg Med Chem Lett, 2012)

Assays:
Glucocorticoid receptor [1] = target: T1, Glucocorticoid receptor (Homo sapiens, UniProt P04150); experiment: Inhibition of human glucocorticoid receptor
T1 sequence (P04150 whole entry): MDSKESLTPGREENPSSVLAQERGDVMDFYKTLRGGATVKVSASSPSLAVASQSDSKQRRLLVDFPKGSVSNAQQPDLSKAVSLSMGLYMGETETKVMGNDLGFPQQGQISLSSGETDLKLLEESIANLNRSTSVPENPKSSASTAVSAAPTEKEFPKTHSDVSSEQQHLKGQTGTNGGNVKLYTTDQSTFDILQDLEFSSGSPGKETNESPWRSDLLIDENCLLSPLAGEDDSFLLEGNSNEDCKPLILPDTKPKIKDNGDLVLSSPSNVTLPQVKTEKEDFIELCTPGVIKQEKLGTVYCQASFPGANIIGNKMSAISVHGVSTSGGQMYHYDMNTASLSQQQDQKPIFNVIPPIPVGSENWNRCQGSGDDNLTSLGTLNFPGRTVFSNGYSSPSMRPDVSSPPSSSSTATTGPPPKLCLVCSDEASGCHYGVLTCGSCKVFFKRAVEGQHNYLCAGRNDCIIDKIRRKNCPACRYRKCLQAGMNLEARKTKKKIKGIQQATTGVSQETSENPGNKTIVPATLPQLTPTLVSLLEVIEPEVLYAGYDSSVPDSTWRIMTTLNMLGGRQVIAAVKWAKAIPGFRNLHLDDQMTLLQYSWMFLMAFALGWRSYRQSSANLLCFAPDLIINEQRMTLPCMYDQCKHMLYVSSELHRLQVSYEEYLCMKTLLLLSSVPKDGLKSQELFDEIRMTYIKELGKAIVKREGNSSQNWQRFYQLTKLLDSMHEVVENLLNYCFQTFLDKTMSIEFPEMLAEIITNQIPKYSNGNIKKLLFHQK

[2] = Cmax in po dosed rat; type: ADME, organism-based; design: route oral; settings: in vivo
Glucocorticoid receptor [3] = target: T1, Glucocorticoid receptor; experiment: Transactivation activity at human glucocorticoid receptor in cells co-expressing GRE by luciferase reporter gene assay relative to control; settings: read-out: Efficacy
Rattus norvegicus [4] = experiment: Transactivation activity in Brown Norway rat lung inflammation model assessed as thymolysis measuring decrease in thymus weight at 10 mg/kg, po for 3 days; type: organism-based; design: dose 10 mg/kg, route oral; scale not given: the % may be the effect or the level left; settings: in vivo, 72 h
[5] = AUC in po dosed rat; type: ADME, organism-based; settings: plasma
Rattus norvegicus [6] = experiment: Antiinflammatory activity in Brown Norway rat lung inflammation model assessed as total cell inhibition at 10 mg/kg, po for 3 days; type: functional; settings: 72 h
Glucocorticoid receptor [7] = target: T1, Glucocorticoid receptor; experiment: Transrepression activity at glucocorticoid receptor in human H292 cells assessed as inhibition of TNF-induced IL8 production; type: cell-based
Rattus norvegicus [8] = experiment: Antiinflammatory activity in Brown Norway rat lung inflammation model assessed as total cell inhibition at 2 mg/kg, it; type: functional; settings: route endotracheal
Glucocorticoid receptor [9] = target: T1, Glucocorticoid receptor; experiment: Transactivation activity at glucocorticoid receptor in human HepG2 cells assessed as induction of tyrosine aminotransferase; type: ADME, cell-based
Glucocorticoid receptor [10] = target: T2, Glucocorticoid receptor (Rattus norvegicus, UniProt P06536); experiment: Transactivation activity at glucocorticoid receptor in rat H4II-E cells assessed as induction of tyrosine aminotransferase; type: ADME, cell-based
T2 sequence (P06536 whole entry): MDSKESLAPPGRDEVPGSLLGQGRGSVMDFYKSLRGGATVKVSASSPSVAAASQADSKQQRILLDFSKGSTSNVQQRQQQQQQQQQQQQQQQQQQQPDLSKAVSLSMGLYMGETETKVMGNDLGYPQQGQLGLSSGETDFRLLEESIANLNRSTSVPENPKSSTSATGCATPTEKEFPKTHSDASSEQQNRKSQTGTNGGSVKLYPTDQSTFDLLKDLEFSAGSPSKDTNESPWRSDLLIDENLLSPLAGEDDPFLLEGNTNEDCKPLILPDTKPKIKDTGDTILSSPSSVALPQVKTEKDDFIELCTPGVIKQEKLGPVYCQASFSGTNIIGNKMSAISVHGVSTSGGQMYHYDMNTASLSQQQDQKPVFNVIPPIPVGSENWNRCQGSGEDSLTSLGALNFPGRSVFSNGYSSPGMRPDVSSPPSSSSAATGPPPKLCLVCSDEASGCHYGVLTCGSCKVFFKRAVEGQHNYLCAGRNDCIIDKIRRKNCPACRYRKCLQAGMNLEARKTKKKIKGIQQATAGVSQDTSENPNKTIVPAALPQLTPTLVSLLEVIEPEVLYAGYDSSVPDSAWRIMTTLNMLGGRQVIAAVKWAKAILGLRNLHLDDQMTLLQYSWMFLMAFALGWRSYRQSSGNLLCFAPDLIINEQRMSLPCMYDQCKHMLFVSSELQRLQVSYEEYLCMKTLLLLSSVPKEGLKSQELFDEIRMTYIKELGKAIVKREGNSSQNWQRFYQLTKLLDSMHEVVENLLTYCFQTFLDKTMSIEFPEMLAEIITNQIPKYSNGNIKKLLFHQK

IC50 (Glucocorticoid receptor [1]) [nM]	Activity (Rattus norvegicus [4]) [%]	SMILES	Cmax [2] [ng/mL]	Emax (Glucocorticoid receptor [3]) [%]	AUC [5] [ng·h/mL]	inhibition in vivo at 10 mg/kg (Rattus norvegicus [6]) [%]	IC50 (Glucocorticoid receptor [7]) [nM]	inhibition in vivo at 2 mg/kg (Rattus norvegicus [8]) [%]	IC50 (Glucocorticoid receptor [9]) [nM]	IC50 (Glucocorticoid receptor [10]) [nM]
8.9	5	Cn1c(SCC(=O)[C@@]2(O)CC[C@@]3(C)[C@@H]4CCC5=CC(=O)CC[C@]5(C)[C@H]4[C@@H](O)C[C@@]32C)nc2ccccc21	115	8	150	39	56.1	–	–	–
–	–	C[C@]12Cc3cnn(-c4ccc(F)cc4)c3C=C1CC[C@@H]1[C@@H]2[C@@H](O)C[C@@]2(C)[C@H]1CC[C@]2(O)C(=O)CSc1cnc2ccccc2n1	–	–	–	–	1.99	9	–	–
–	–	C[C@]12Cc3cnn(-c4ccccc4)c3C=C1CC[C@@H]1[C@@H]2[C@@H](O)C[C@@]2(C)[C@H]1CC[C@]2(O)C(=O)CSc1cnc2ccccc2n1	21	68	64	–	5.36	28	226	113
